Test [1] has as its system rabbit platelet aggregation. Nature of the test: Inhibition of rabbit platelet aggregation (turbidimetric, platelet rich plasma). The class given is cell-based, rabbit (male Japanese White). Conditions: Oryctolagus cuniculus. The procedure: Inhibitory activity of the nitro aliphatic compounds of this invention against rabbit platelet aggregation was measured according to the method described below.
Blood was collected from the central ear arteries of male Japanese White rabbit (2.5 to 3.0 kg body weight). The blood was prevented from coagulation with 1 volume of 3.8% sodium citrate to 9 volumes of blood. Platelet rich plasma (PRP) was prepared by centrifugation of the blood at 1300 rpm for 10 min. at 10° C. The PRP was diluted with platelet poor plasma obtained by further centrifugation of the blood at 3000 rpm for 10 min. The platelet counts in the PRP used for aggregation studies were about 4.0×10^5 platelets/mm^3. Aggregometry was performed with platelet aggregating agents in a SIENCO dual sample aggregometer (DP-247E) at 37° C., using 0.3 ml combined volume of PRP and reagents in a cylindrical glass cuvette under constant stirring with a magnetic stirring bar. Platelet aggregation was measured turbidimetrically by recording changes in the light transmission of PRP during aggregation. Activities of inhibitors were expressed as IC50 values i.e. concentrations required to inhibit the platelet aggregation responses by 50%. Collagen was used in amounts (2 to 20 μg/ml for PRP) sufficient to induce a response that was 80 to 90% of the maximum obtainable. Arachidonic acid was used at a final concentration of 5 μM. Similarly a final concentration of adenosine di-phosphate (ADP), usually 1 to 5 μM was choosen to induce approximately 75% of the maximum aggregation. Thrombin was used at a final concentration of 0.3 U/ml.

In the next test the test system is blood pressure. The experiment in a line: Hypotensive activity in anesthetized rat. The test is classed as in vivo, rat (Sprague-Dowley). The conditions noted are these: intravenous, urethane-anesthetized rat. The method, then:
A 8 weeks-old Sprague-Dowley strain rat was anesthetized with urethane (0.7 g/kg, i.p). Blood pressure was recorded from femoral artery using a transducer coupled to a Biophysiograph 180 system (made by Sanei Sokuki Co., Ltd.). The femoral vein was cannulated to permit intravenous injection of the test compound. The test compound was dissolved in saline and injected in a volume of 0.2 ml.

The mark [2] stands for this setting: Inducer: Thrombin (0.3 U/ml), Table 2, read-out: IC50, platelet aggregation.

Values after ≈ are worked out from the molar mass of the structure shown. Read-outs that look alike come from different tables or passages of the source.

The values below come from patent US4767768A, “Nitro aliphatic compounds, process for preparation thereof and use thereof” (Fujisawa Pharmaceutical Co., Ltd., priority 1982, dated 1988).

As a reminder, the IC50 is the midpoint of a concentration-inhibition curve.

With `CCC(=CC(=NO)C(=O)N1CCCCC1)C(C)[N+](=O)[O-]` (stereo not drawn) [Example 7, N-(4-Ethyl-2-hydroxyimino-5-nitro-3-hexenoyl)piperidine], the IC50 in test [1] (setting [2]) was 0.75 µg/mL (≈ 2.65 µM).
On the same count and under the same terms, as for `CCC(=CC(=NO)C(=O)NC)C(C)[N+](=O)[O-]` (stereo not drawn) [Example 3, N-Methyl-4-ethyl-2-hydroxyimino-5-nitro-3-hexenamide], the figure is 0.3 µg/mL (≈ 1.31 µM); as for `CCC(=CC(=NO)C(N)=O)C(c1ccc(OC)cc1)[N+](=O)[O-]` (stereo not drawn) [Example 14, 4-Ethyl-2-hydroxyimino-5-(4-methoxyphenyl)-5-nitro-3-pentenamide], 0.3 µg/mL (≈ 0.976 µM).
Still for that read-out and setting: to `CCC(=CC(=NO)C(=O)NCCCC(=O)O)C(C)[N+](=O)[O-]` (stereo not drawn) [Example 15, N-[4-Ethyl-2-hydroxyimino-5-nitro-3-hexenoyl]-4-aminobutyric acid] belongs 0.75 µg/mL (≈ 2.49 µM); to `CCC(=CC(COC(C)=O)=NO)C(C)[N+](=O)[O-]` (stereo not drawn) [Example 23, 1-Acetoxy-4-ethyl-2-hydroxyimino-5-nitro-3-hexene], 0.15 µg/mL (≈ 0.614 µM).
On to `CCC(=CC(CO)=NO)C(C)[N+](=O)[O-]` (stereo not drawn) [Example 22, 4-ethyl-2-hydroxyimino-5-nitro-3-hexen-1-ol], for which the IC50 in test [1] (setting [2]) is 0.75 µg/mL (≈ 3.71 µM).
As to `CCC(CC(=NO)C(N)=O)C(C)[N+](=O)[O-]` (stereo not drawn) [Example 25, 4-Ethyl-2-hydroxyimino-5-nitro-hexanamide], in test [1] (setting [2]), the concentration for half-maximal inhibition (IC50) came to 6 µg/mL (≈ 27.6 µM).
The same measure, in the same setting: as for `CCC(=CC(C=NO)=NO)C(C)[N+](=O)[O-]` (stereo not drawn) [Example 21, 4-ethyl-2-hydroxyimino-5-nitro-3-hexenaldehyde oxime], the figure is 0.15 µg/mL (≈ 0.697 µM).
For `CCOC(=O)C(C=C(CC)C(C)[N+](=O)[O-])=NO` (stereo not drawn) [Example 19, Ethyl 4-ethyl-2-hydroxyimino-5-nitro-3-hexenoate], the IC50 in test [1] (setting [2]) turned out to be 0.07 µg/mL (≈ 0.287 µM).
As for `CCCCNC(=O)C(C=C(CC)C(C)[N+](=O)[O-])=NO` (stereo not drawn) [Example 2, N-n-butyl-4-ethyl-2-hydroxyimino-5-nitro-3-hexenamide], the concentration for half-maximal inhibition (IC50) in test [1] (setting [2]) came out at 0.15 µg/mL (≈ 0.553 µM).
For `CCC(CC(=NO)C(=O)NC(C)(C)C)C(C)[N+](=O)[O-]` (stereo not drawn) [Example 24, N-t-butyl-4-ethyl-2-hydroxyimino-5-nitrohexanamide], the IC50 in test [1] (setting [2]) came out at 1.5 µg/mL (≈ 5.49 µM).
On the same count and under the same terms, to `CCC(=CC(C#N)=NO)C(C)[N+](=O)[O-]` (stereo not drawn) [Example 17, 4-Ethyl-2-hydroxyimino-5-nitro-3-hexenenitrile] belongs 1.5 µg/mL (≈ 7.61 µM).
Same read-out and setting: as for `CCC(=CC(C=O)=NO)C(C)[N+](=O)[O-]` (stereo not drawn) [Example 18, 4-Ethyl-2-hydroxyimino-5-nitro-3-hexenal], the figure is 3 µg/mL (≈ 15 µM).
On the same count and under the same terms, to `CCC(=CC(=NO)C(=O)NCc1ccccc1)C(C)[N+](=O)[O-]` (stereo not drawn) [Example 11, N-Benzyl-4-ethyl-2-hydroxyimino-5-nitro-3-hexenamide] belongs 0.15 µg/mL (≈ 0.491 µM); to `CCC(=CC=NO)C(C)[N+](=O)[O-]` (stereo not drawn) [Example 28, 3-ethyl-4-nitro-2-pentenaloxime], 6 µg/mL (≈ 34.8 µM).
In the case of `CCC(=CC(=NO)C(=O)N[C@H](C(=O)O)[C@@H](C)O)C(C)[N+](=O)[O-]` (stereo partly drawn) [Example 10, N-(4-Ethyl-2-hydroxyimino-5-nitro-3-hexenoyl)-L-threonine], the IC50 in test [1] (setting [2]) worked out at 0.3 µg/mL (≈ 0.945 µM).
On the same count and under the same terms, to `CCC(=CC(=NO)C(=O)NCC(=O)OC)C(C)[N+](=O)[O-]` (stereo not drawn) [Example 20, Methyl 2-[4-ethyl-2-hydroxyimino-5-nitro-3-hexenoylamino]acetate] belongs 0.15 µg/mL (≈ 0.522 µM); to `CCC(=CC(=NO)C(=O)NCC(=O)O)C(C)[N+](=O)[O-]` (stereo not drawn) [Example 6, N-(4-Ethyl-2-hydroxyimino-5-nitro-3-hexenoyl)glycine], 0.15 µg/mL (≈ 0.549 µM).
Turning to `CC/C(=C\C(=NO)C(N)=O)C(C)[N+](=O)[O-]` (stereo not drawn) [Example 1, (E)-4-ethyl-2-hydroxyimino-5-nitro-3-hexenamide], the “Hypotensive effect, Duration” value turned out to be 1.5 min with blood pressure (10 μg/kg) and 4 min in the test with blood pressure (100 μg/kg). In addition, the figures for the “Hypotensive effect, Maximal decrease” value in the test with blood pressure (10 μg/kg) and with blood pressure (100 μg/kg) were 10 mm Hg and 40 mm Hg, respectively. The IC50 was determined as 0.15 µg/mL (≈ 0.697 µM) in test [1] (inducer: ADP (usually 1 to 5 μM), read-out: IC50 value, platelet aggregation); 0.75 µg/mL (≈ 3.48 µM) in test [1] (inducer: Arachidonic acid (5 μM), read-out: IC50 value, platelet aggregation); 0.07 µg/mL (≈ 0.325 µM) in test [1] (inducer: Collagen (2 to 20 μg/ml), read-out: IC50 value, platelet aggregation); 0.15 µg/mL (≈ 0.697 µM) in test [1] (inducer: Thrombin (0.3 U/ml), Table 1, read-out: IC50 value, platelet aggregation).
On to `CCC(=CC(=NO)C(=O)N1CCN(C=O)CC1)C(C)[N+](=O)[O-]` (stereo not drawn) [Example 4, 1-Formyl-4-(4-ethyl-2-hydroxyimino-5-nitro-3-hexenoyl)piperazine], for which, in test [1] (setting [2]), the IC50 is 0.3 µg/mL (≈ 0.961 µM).
